In brackets after ≈: the same amount, converted by molar mass. Where a name gives a salt, the structure may show the parent alone.
Assays:
[1] = test system: Staphylococcus epidermidis; assay: 24-hour minimum inhibitory concentration, microdilution method, Mueller-Hinton broth; format: cell-based; details: S. epidermidis, read-out: In-Vitro MIC
Experimental: The compounds listed below in Table 1 were tested for in vivo and in vitro antibacterial activity. The twenty-four hour minimum inhibitory in vitro concentrations (MIC) for a test strain of Staphylococcus epidermidis of the compounds were determined using a standard microdilution method with Mueller-Hinton broth. This method is described in Conrath, Theodore B., 1972 Handbook of Microtiter Procedures, Dynatech Corporation, Cambridge, Mass., the disclosure of which is herein incorporated by reference. | ^1 24Hour minimum inhibitory concentration: determined by | microdilution method with S. epidermidis as the test organism.

Escherichia coli = assay: in vivo antibacterial activity, mice infected intraperitoneally, oral dosing; details: oral at infection and 4 hours later, Reed-Muench, mortality, read-out: In-Vivo ED50, E. coli
Experimental: (§1) The in vivo antibacterial activity of the compounds was determined as follows.
(§2) Cultures of Staphylococcus aureus or Escherichia coli were grown from stored frozen stocks in trypticase soy broth (BBL), a standard bacteriological growth medium, with shaking until a turbidity of optical density (650μ) of 0.4-0.5 was attained. These cultures were centrifuged and resuspended in either 50% hog gastric mucin for Staphyloccus aureus or saline for Escherichia coli. These suspensions were injected intraperitoneally at dilutions calculated to cause 90-100% mortality within 7 days of the mice of the control groups.
(§3) The compounds were suspended or dissolved in 0.25% Methocel, 15 CPS, at various concentrations. Mice were dosed orally by intubation at the time of infection and again four hours later. Mortality was recorded daily until test termination. The estimated dose 50 (ED50) was calculated by the Reed-Muench method, as described in Reed, L. J. and Muench, H., American Journal of Hygiene, 27, 493-497 (1938), the disclosure of which is herein incorporated by reference.

Staphylococcus aureus = assay: as above; details: oral at infection and 4 hours later, Reed-Muench, mortality, read-out: In-Vivo ED50, S. aureus
Experimental: as §1, §2, §3

Fusobacterium sp. = assay: in-vitro susceptibility of anaerobic clinical isolates, agar dilution; format: cell-based; details: 48-hour, 4 isolates tested for each compound
Experimental: (§4) The inhibitory activity for anaerobic bacteria of 5-chloromethyl-3-(4-difluoromethylsulfonyl)phenyl-2-oxazolidinone and (1)-5-hydroxymethyl-3-(4-methylsulfonyl)phenyl-2-oxazolidinone was determined using the agar dilution method described in Barry, Arthur L., The Antimicrobic Susceptibility Test: Principles and Practices, 1976 Lea & Febiger, Philadelphia.
(§5) ^1 48hour minimum inhibitory concentration determined by agar dilutio

Clostridium sp. = assay: as above; format: cell-based; details: 48-hour, 4 isolates tested for each compound
Experimental: as §4, §5

Bacteroides sp. = assay: as above; format: cell-based; details: 48-hour, 32 isolates (chloromethyl compound), 28 isolates (hydroxymethyl compound)
Experimental: as §4, §5

Gram positive cocci = assay: as above; format: cell-based; details: 48-hour, 7 isolates tested for each compound
Experimental: as §4, §5

anaerobic bacteria = assay: inhibitory activity for anaerobic bacteria, agar dilution; format: cell-based; details: in words, from Table 3
Experimental: as §4

Salmonella sp. = assay: in-vitro susceptibility of clinical isolates, agar dilution; format: cell-based; details: 24-hour, 35° C., 6 isolates
Experimental: (§6) The in-vitro antibacterial activity spectrum of (1)-5-Hydroxymethyl-3-(4-methylsulfonyl)phenyl-2-oxazolidinone, determined by an agar dilution procedure, is shown in table 2. This procedure is known in the art and can be summarized as follows. […] The agar plates were inoculated with a 0.001 ml calibrated loopful of bacterial inoculum diluted to contain 5×10^6 colony forming units (CFU) per ml. […] The test organisms included clinical bacterial isolates representing two gram positive and nine gram negative genera.
(§7) ^1 MIC: Minimum Inhibitory Concentration determined by agar dilution

Neisseria sp. = assay: as above; format: cell-based; details: 24-hour, 35° C., 42 isolates
Experimental: as §6, §7

E. coli = assay: as above; format: cell-based; details: Escherichia coli, 24-hour, 35° C., 86 isolates
Experimental: as §6, §7

Staphylococci sp. = assay: as above; format: cell-based; details: 24-hour, 35° C., 37 isolates
Experimental: as §6, §7

Klebsiella sp. = assay: as above; format: cell-based; details: 24-hour, 35° C., 68 isolates
Experimental: as §6, §7

Hemophilus influenzae = assay: as above; format: cell-based; details: Haemophilus influenzae, 24-hour, 35° C., 4 isolates
Experimental: as §6, §7

Shigella sp. = assay: as above; format: cell-based; details: 24-hour, 35° C., 9 isolates
Experimental: as §6, §7

Streptococci sp. = assay: as above; format: cell-based; details: 24-hour, 35° C., 12 isolates
Experimental: as §6, §7

Pseudomonas sp. = assay: as above; format: cell-based; details: 24-hour, 35° C., 78 isolates
Experimental: as §6, §7

Proteus sp. = assay: as above; format: cell-based; details: 24-hour, 35° C., 88 isolates
Experimental: as §6, §7

Providencia sp. = assay: as above; format: cell-based; details: 24-hour, 35° C., 12 isolates
Experimental: as §6, §7

Serratia sp. = assay: as above; format: cell-based; details: 24-hour, 35° C., 44 isolates
Experimental: as §6, §7

Enterobacter sp. = assay: as above; format: cell-based; details: 24-hour, 35° C., 41 isolates
Experimental: as §6, §7

Work on `CS(=O)(=O)c1ccc(N2CC(CO)OC2=O)cc1` (racemic) [5-Hydroxymethyl-3-(4-methylsulfonylphenyl)-2-oxazolidinone] yielded an MIC [1] of 12.5 µg/mL (≈ 46.1 µM), an ED50 (Escherichia coli) of 40 mg/kg and an ED50 (Staphylococcus aureus) of 18 mg/kg.

Compound `CS(=O)(=O)c1ccc(N2CC(COC(=O)CCC(=O)O)OC2=O)cc1` (racemic) [(dl)-3-(4-Methylsulfonylphenyl)-2-oxooxazolidin-5-ylmethyl 1,4-Butanedioic Acid Mono Ester, Mono Sodium Salt] has an MIC [1] greater than 50 µg/mL, an ED50 (Escherichia coli) of 40 mg/kg and an ED50 (Staphylococcus aureus) of 26 mg/kg.

Compound `CS(=O)(=O)c1ccc(N2CC(COC(=O)CCC(=O)O)OC2=O)cc1` (single isomer, unassigned) [l-3-(4-Methylsulfonylphenyl)-2-oxooxazolidin-5-ylmethyl 1,4-Butanediodic Acid Mono Ester, Mono Sodium Salt] has an ED50 (Staphylococcus aureus) of 20 mg/kg.

`C[C@H](N)C(=O)OCC1CN(c2ccc(S(C)(=O)=O)cc2)C(=O)O1` (stereo partly drawn) [5-(L)-Alanyloxymethyl-(1)-3-(4-methylsulfonyl)phenyl-2-oxazolidinone trifluoroacetic acid salt] gave an MIC [1] of 25 µg/mL and an ED50 (Staphylococcus aureus) of 14 mg/kg.

With `CC(=O)OCC1CN(c2ccc(S(C)(=O)=O)cc2)C(=O)O1` (stereo not drawn) [5-Acetoxymethyl-3-(4-methylsulfonyl)phenyl-2-oxazolidinone] the MIC [1] was greater than 50 µg/mL and the ED50 (Staphylococcus aureus) was 100 mg/kg.

For `CS(=O)(=O)c1ccc(N2CC(CBr)OC2=O)cc1` (stereo not drawn) [5-Bromomethyl-3-(4-methylsulfonyl)phenyl-2-oxazolidinone], the MIC [1] was 5 µg/mL (≈ 15 µM).

In the case of `O=C1OC(CCl)CN1c1ccc(S(=O)(=O)C(F)F)cc1` (stereo not drawn) [5-Chloromethyl-3-(4-difluoromethylsulfonylphenyl)-2-oxazolidinone], the MIC [1] is reported as 2.5 µg/mL (≈ 7.68 µM), the MIC (Fusobacterium sp.) is reported as 0.06 µg/mL (≈ 0.184 µM) and the MIC (Clostridium sp.) is reported as 1 µg/mL (≈ 3.07 µM). It also gave an MIC (Bacteroides sp.) of 1.8 µg/mL (≈ 5.53 µM), an MIC (Gram positive cocci) of 0.7 µg/mL (≈ 2.15 µM) and an ED50 (Staphylococcus aureus) of 20 mg/kg. For the same compound, the “inhibition of anaerobic bacterial growth” value (anaerobic bacteria) was “potent inhibitors of anaerobic bacterial growth”.

`CS(=O)(=O)c1ccc(N2CC(CCl)OC2=O)cc1` (stereo not drawn) [5-Chloromethyl-3-(4-methylsulfonylphenyl)-2-oxazolidinone] was tested, and the MIC [1] was 5 µg/mL (≈ 17.3 µM), the ED50 (Escherichia coli) was 63 mg/kg and the ED50 (Staphylococcus aureus) was 29 mg/kg.

`O=C1OC(CCl)CN1c1ccc(S(=O)(=O)C(F)(F)F)cc1` (stereo not drawn) [5-Chloromethyl-3-(4-trifluoromethylsulfonylphenyl)-2-oxazolidinone] gave an MIC [1] of 4.7 µg/mL (≈ 13.7 µM) and an ED50 (Staphylococcus aureus) of 105 mg/kg.

`O=C1OC(CCl)CN1c1ccc(S(=O)(=O)C(F)(F)C(F)F)cc1` (stereo not drawn) [5-Chloromethyl-3-[4-(1,1,2,2-tetrafluoroethylsulfonyl)phenyl]-2-oxazolidinone] was tested, and the MIC [1] was 10 µg/mL (≈ 26.6 µM) and the ED50 (Staphylococcus aureus) was 92 mg/kg.

For `CS(=O)(=O)c1ccc(N2CC(CF)OC2=O)cc1` (stereo not drawn) [5-Fluoromethyl-3-(4-methylsulfonyl)phenyl-2-oxazolidinone], the MIC [1] was 20 µg/mL (≈ 73.2 µM) and the ED50 (Staphylococcus aureus) was 35 mg/kg.

Compound `O=C1OC(CO)CN1c1ccc(S(=O)(=O)C(F)F)cc1` (stereo not drawn) [5-Hydroxymethyl-3-(4-difluoromethylsulfonylphenyl)-2-oxazolidinone] has an MIC [1] of 3.1 µg/mL (≈ 10.1 µM), an ED50 (Escherichia coli) of 27 mg/kg and an ED50 (Staphylococcus aureus) of 23 mg/kg.

With `C[S+]([O-])c1ccc(N2CC(CO)OC2=O)cc1` (stereo not drawn) [5-Hydroxymethyl-3-(4-methylsulfinylphenyl)-2-oxazolidinone] the MIC [1] was 50 µg/mL (≈ 196 µM) and the ED50 (Staphylococcus aureus) was 27 mg/kg.

Compound `O=C1OC(CO)CN1c1ccc(S(=O)(=O)C(F)(F)F)cc1` (stereo not drawn) [5-Hydroxymethyl-3-(4-trifluoromethylsulfonylphenyl)-2-oxazolidinone] has an MIC [1] of 12.5 µg/mL (≈ 38.4 µM) and an ED50 (Staphylococcus aureus) of 20 mg/kg.

`O=C1OC(CO)CN1c1ccc(S(=O)(=O)C(F)(F)C(F)F)cc1` (stereo not drawn) [5-Hydroxymethyl-3-[4-(1,1,2,2-tetrafluoroethylsulfonyl)phenyl]-2-oxazolidinone] showed an MIC [1] of 12.5 µg/mL (≈ 35 µM) and an ED50 (Staphylococcus aureus) of 108 mg/kg.

For `CCS(=O)(=O)c1ccc(N2CC(CCl)OC2=O)cc1` (stereo not drawn) [5-chloromethyl-3-(4-ethylsulfonyl)phenyl-2-oxazolidinone], the MIC [1] was 50 µg/mL (≈ 165 µM).

Compound `C[S+]([O-])c1ccc(N2CC(CCl)OC2=O)cc1` (stereo not drawn) [5-chloromethyl-3-(4-methylsulfinyl)phenyl-2-oxazolidinone] has an MIC [1] of 25 µg/mL (≈ 91.3 µM).

`CS(=O)(=O)c1ccc(N2C[C@H](CO)OC2=O)cc1` [R-(-)-3-(4-Methylsulfonylphenyl)-5-hydroxymethyl-2-oxazolidinone] showed an MIC [1] of 12.5 µg/mL (≈ 46.1 µM), an MIC (Fusobacterium sp.) of 0.3 µg/mL (≈ 1.11 µM) and an MIC (Clostridium sp.) of 7 µg/mL (≈ 25.8 µM). For the same compound, the MIC (Bacteroides sp.) was 3.4 µg/mL (≈ 12.5 µM), the MIC (Gram positive cocci) was 1.3 µg/mL (≈ 4.79 µM) and the MIC (Salmonella sp.) was 16 µg/mL (≈ 59 µM). The MIC (Neisseria sp.) was 10.5 µg/mL (≈ 38.7 µM), the MIC (E. coli) was 21.7 µg/mL (≈ 80 µM) and the MIC (Staphylococci sp.) was 3.8 µg/mL (≈ 14 µM). The MIC (Klebsiella sp.) was 37.5 µg/mL (≈ 138 µM), the MIC (Hemophilus influenzae) was 16 µg/mL (≈ 59 µM) and the MIC (Shigella sp.) was 11.6 µg/mL (≈ 42.8 µM). The MIC (Streptococci sp.) was 3.7 µg/mL (≈ 13.6 µM), the MIC (Pseudomonas sp.) was no less than 128 µg/mL and the MIC (Proteus sp.) was 21.7 µg/mL (≈ 80 µM). It also gave an MIC (Providencia sp.) of 26.7 µg/mL (≈ 98.4 µM), an MIC (Serratia sp.) of no less than 108 µg/mL and an MIC (Enterobacter sp.) of 37.9 µg/mL (≈ 140 µM). For the same compound, the ED50 (Escherichia coli) was 25 mg/kg, the ED50 (Staphylococcus aureus) was 9 mg/kg and the “inhibition of anaerobic bacterial growth” value (anaerobic bacteria) was “potent inhibitors of anaerobic bacterial growth”.

Source: patent US4340606A, “3-(p-Alkylsulfonylphenyl)oxazolidinone derivatives as antibacterial agents” (E. I. Du Pont de Nemours and Company, priority 1980, dated 1982)
